This note sets out measurements from US12134620B2 (ARAXES PHARMA LLC, priority 2018, dated 2024).

The test addresses T1, KRAS G12C 1-169, his-tagged protein, GDP-loaded (Homo sapiens, UniProt P01116, G12C).
T1 construct: KRAS G12C 1-169, his-tagged protein, GDP-loaded; His tag
The test is described as follows: Biochemical assay: covalent modification of KRAS G12C, analysed by mass spectrometry (RapidFire/TOF or Q-Exactive). Also: time not given here. It is filed as binding. The note with it: Modification activity, modification percentage from MS peak intensities. In a few lines:
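Covalent adduct formation was quantified by intact-protein mass spectrometry, either TOF or C4 LC-Q Exactive Plus, as percent modified versus unmodified protein after deconvolution. Compounds at 8 or 32 μM final were incubated with 0.5 or 2 μM GDP-bound KRAS G12C(1-169)-His in Hepes/NaCl/MgCl2 buffer before acid quench.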
Consider `CC#CC(=O)N1CC2(CCN(c3cncc(-c4c(O)cccc4F)c3C#N)C2)C1` [Compound I-270, 3-(2-(but-2-ynoyl)-2,6-diazaspiro[3.4]octan-6-yl)-5-(2-fluoro-6-hydroxyphenyl)isoni-cotinonitrile], for which the Binding % entry is “+ (+ indicates binding activity greater than 0% and up to 50%)”.
In the case of `CC#CC(=O)N1CC2(CCN(c3cncc(-c4c(C)ccc5cnn(C)c45)c3C#N)C2)C1` [Compound I-271, 3-(2-(but-2-ynoyl)-2,6-diazaspiro[3.4]octan-6-yl)-5-(1,6-dimethyl-1H-indazol-7-yl)isonicotinonitrile], the Binding % result was “+ (+ indicates binding activity greater than 0% and up to 50%)”.
As for `CC#CC(=O)N1CC2(CCN(c3cncc(-c4c(C)ccc5[nH]ncc45)c3C#N)C2)C1` [Compound I-272, 3-(2-(but-2-ynoyl)-2,6-diazaspiro[3.4]octan-6-yl)-5-(5-methyl-1H-indazol-4-yl)isonicotinonitrile], the entry is “+ (+ indicates binding activity greater than 0% and up to 50%)”; as for `C=CC(=O)N1CC2(CC(=O)N(c3ncnc(-c4c(C)ccc5[nH]ncc45)c3C#N)C2)C1` [Compound I-273, 4-(2-acryloyl-7-oxo-2,6-diazaspiro[3.4]octan-6-yl)-6-(5-methyl-1H-indazol-4-yl)pyrimidine-5-carbonitrile], “+ (+ indicates binding activity greater than 0% and up to 50%)”; as for `C=CC(=O)N1CC2(CCN(c3ccnc(-c4c(C)ccc5[nH]ncc45)n3)C2)C1` [Compound I-274, 1-(6-(2-(5-methyl-1H-indazol-4-yl)pyrimidin-4-yl)-2,6-diazaspiro[3.4]octan-2-yl)prop-2-en-1-one], “+ (+ indicates binding activity greater than 0% and up to 50%)”.
As for `C=CC(=O)N1CC2(CCN(c3nccc(-c4c(C)ccc5[nH]ncc45)n3)C2)C1` [Compound I-275, 1-(6-(4-(5-methyl-1H-indazol-4-yl)pyrimidin-2-yl)-2,6-diazaspiro[3.4]octan-2-yl)prop-2-en-1-one], the entry is “+ (+ indicates binding activity greater than 0% and up to 50%)”; as for `C=CC(=O)N1CC2(CCN(c3cncc(-c4c(C)ccc5[nH]nc(N)c45)c3C#N)C2)C1` [Compound I-277, 3-(2-acryloyl-2,6-diazaspiro[3.4]octan-6-yl)-5-(3-amino-5-methyl-1H-indazol-4-yl)isonicotinonitrile], “++ (++ indicates binding activity from 50 to 85%)”; as for `CC#CC(=O)N1CC2(CCN(c3cncc(-c4c(C)ccc5[nH]nc(N)c45)c3C#N)C2)C1` [Compound I-278, 3-(3-amino-5-methyl-1H-indazol-4-yl)-5-(2-(but-2-ynoyl)-2,6-diazaspiro[3.4]octan-6-yl)isonicotinonitrile], “+ (+ indicates binding activity greater than 0% and up to 50%)”.
Turning to `Cc1ccc2[nH]ncc2c1-c1cncc(N2CCC3(CN(C(=O)/C=C/CN(C)C)C3)C2)c1C#N` [Compound I-279, (E)-3-(2-(4-(dimethylamino)but-2-enoyl)-2,6-diazaspiro[3.4]octan-6-yl)-5-(5-methyl-1H-indazol-4-yl)isonicotinonitrile], the Binding % entry is “+ (+ indicates binding activity greater than 0% and up to 50%)”.
As for `C=CC(=O)N1CC2(CCN(c3ncnc(-c4c(C)ccc5[nH]ncc45)n3)C2)C1` [Compound I-280, 1-(6-(4-(5-methyl-1H-indazol-4-yl)-1,3,5-triazin-2-yl)-2,6-diazaspiro[3.4]octan-2-yl)prop-2-en-1-one], the entry is “+ (+ indicates binding activity greater than 0% and up to 50%)”; as for `C=CC(=O)N1CC2(CCN(c3ncnc(-c4c(C)ccc5[nH]ncc45)c3C#N)CC2)C1C(C)C` (centres unmarked) [Compound I-281, 4-(2-acryloyl-1-isopropyl-2,7-diazaspiro[3.5]nonan-7-yl)-6-(5-methyl-1H-indazol-4-yl)pyrimidine-5-carbonitrile], “+ (+ indicates binding activity greater than 0% and up to 50%)”.
